Laboratory results as given in patent US20140357487A1, “PLANTS HAVING INCREASED TOLERANCE TO HERBICIDES” (BASF SE, priority 2011, published 2014).

Key:
Conditions in all cases: normalized on Arabidopsis wild-type HPPD
[1] = molecular target: T1, Arabidopsis HPPD (SEQ ID: 53) (Arabidopsis thaliana, UniProt P93836); test: HPPD activity assay, Arabidopsis wild-type HPPD; assay type: biochemical; design: key to Normalized tolerance index TI: tolerance index relative to Arabidopsis wild-type HPPD (= 1)
T1 construct: His6 (N); made in house; host or cells: E. coli BL21 (DE3)
T1 sequence (P93836 1-445): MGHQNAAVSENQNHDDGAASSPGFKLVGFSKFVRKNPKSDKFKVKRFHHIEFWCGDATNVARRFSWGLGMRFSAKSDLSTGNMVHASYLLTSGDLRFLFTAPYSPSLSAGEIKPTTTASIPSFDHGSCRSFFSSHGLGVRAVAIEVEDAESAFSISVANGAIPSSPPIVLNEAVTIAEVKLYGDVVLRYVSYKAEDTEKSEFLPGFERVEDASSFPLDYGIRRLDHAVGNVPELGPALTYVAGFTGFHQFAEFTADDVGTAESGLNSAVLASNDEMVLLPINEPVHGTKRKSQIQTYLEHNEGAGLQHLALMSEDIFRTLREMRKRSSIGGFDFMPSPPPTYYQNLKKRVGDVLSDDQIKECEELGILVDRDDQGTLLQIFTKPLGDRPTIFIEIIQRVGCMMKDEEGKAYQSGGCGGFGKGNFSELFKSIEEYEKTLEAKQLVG
Procedure: (§1) HPPD produces homogentisic acid and CO2 from 4-hydroxyphenylpyruvate (4-HPP) and O2. The activity assay for HPPD is based on the analysis of homogentisic acid by reversed phase HPLC.
(§2) The assay mixture can contain 150 mM potassium phosphate buffer pH 7.0, 50 mM L-ascorbic acid, 1 μM FeSO4 and 7 μg of purified enzyme in a total volume of 1 ml.
(§3) Inhibitors are dissolved in DMSO (dimethylsulfoxide) to a concentration of 20 mM or 0.5 mM, respectively. From this stock solution serial five-fold dilutions are prepared in DMSO, which are used in the assay. The respective inhibitor solution accounts for 1% of the assay volume. […] After a preincubation of 30 min the reaction is started by adding 4-HPP to a final concentration of 0.1 mM. The reaction is allowed to proceed for 120 min at room temperature. The reaction is stopped by addition of 100 μl of 4.5 M phosphoric acid.
(§4) Activities are normalized by setting the uninhibited enzyme activity to 100%. IC50 values are calculated using non-linear regression.
(§5) The assay mixture can contain 150 mM potassium phosphate buffer pH 7.0, 50 mM L-ascorbic acid, 100 μM Catalase (Sigma-Aldrich), 1 μM FeSO4 and 0.2 units of purified HPPD enzyme in a total volume of 505 μl. 1 unit is defined as the amount of enzyme that is required to produce 1 nmol of HGA per minute at 20° C.
Inhibitors are dissolved in DMSO (dimethylsulfoxide) to a concentration of 0.5 mM. From this stock solution serial five-fold dilutions are prepared in DMSO, which are used in the assay. The respective inhibitor solution accounts for 1% of the assay volume. […] Activities are normalized by setting the uninhibited enzyme activity to 100%. IC50 values are calculated using non-linear regression.
(§6) Using methods which are described in the above examples or well known in the art, purified, recombinant wildtype HPPD enzymes are characterized with respect to their kinetic properties and sensitivity towards HPPD inhibiting herbicides. Apparent michaelis constants (Km) and maximal reaction velocities (Vmax) are calculated by non-linear regression with the software GraphPad Prism 5 (GraphPad Software, La Jolla, USA) using a substrate inhibition model.
(§7) Field performance of the HPPD enzyme, which is used as a herbicide tolerance trait, may depend not only on its lack of sensitivity towards HPPD inhibiting herbicides but also on its activity. To assess the potential performance of a herbicide tolerance trait a tolerance index (TI) is calculated using the following formula: […]
Easy comparison and ranking of each trait is enabled by normalizing tolerance indexes on Arabidopsis wild-type HPPD.

Alopecurus HPPD = test: HPPD activity assay, Alopecurus HPPD; assay type: biochemical
Procedure: as §1, §2
(§8) Inhibitors are dissolved in DMSO (dimethylsulfoxide) to a concentration of 20 mM or 0.5 mM, respectively. From this stock solution serial five-fold dilutions are prepared in DMSO, which are used in the assay. The respective inhibitor solution accounts for 1% of the assay volume. Thus, final inhibitor concentrations range from 200 μM to 2.5 nM or from 5 μM to 63 pM, respectively. After a preincubation of 30 min the reaction is started by adding 4-HPP to a final concentration of 0.1 mM. The reaction is allowed to proceed for 120 min at room temperature. The reaction is stopped by addition of 100 μl of 4.5 M phosphoric acid.
as §4
(§9) The assay mixture can contain 150 mM potassium phosphate buffer pH 7.0, 50 mM L-ascorbic acid, 100 μM Catalase (Sigma-Aldrich), 1 μM FeSO4 and 0.2 units of purified HPPD enzyme in a total volume of 505 μl. […]
(§10) Inhibitors are dissolved in DMSO (dimethylsulfoxide) to a concentration of 0.5 mM. […] IC50 values are calculated using non-linear regression.
as §6, with “model. […] Weighted means (by standard error) of Km and […] values are calculated from at least three independent experiments. […]” for “model.”

Avena HPPD = test: HPPD activity assay, Avena HPPD; assay type: biochemical, Avena sativa
Procedure: as §1, §2, §8, §4, §5
(§11) Inhibitors are dissolved in DMSO (dimethylsulfoxide) to a concentration of 0.5 mM. From this stock solution serial five-fold dilutions are prepared in DMSO, which are used in the assay. The respective inhibitor solution accounts for 1% of the assay volume. Thus, final inhibitor concentrations range from 5 μM to 320 pM, respectively. Activities are normalized by setting the uninhibited enzyme activity to 100%. IC50 values are calculated using non-linear regression.
as §6, with “model. […] Weighted means (by standard error) of Km and […] values are calculated from at least three independent experiments. […]” for “model.”
as §7

Chlamydomonas HPPD1 = test: HPPD activity assay, Chlamydomonas HPPD1; assay type: biochemical, Chlamydomonas reinhardtii
Procedure: as §1, §2, §8, §4, §9, §10
as §6, with “model. […] Weighted means (by standard error) of Km and […] values are calculated from at least three independent experiments. […]” for “model.”

Lolium HPPD = test: HPPD activity assay, Lolium HPPD; assay type: biochemical
Procedure: as §1, §2, §8, §4, §5, §11
as §6, with “model. […] Weighted means (by standard error) of Km and […] values are calculated from at least three independent experiments. […]” for “model.”
as §7

Poa HPPD = test: HPPD activity assay, Poa HPPD; assay type: biochemical
Procedure: as §1, §2, §8, §4, §9, §10
as §6, with “model. […] Weighted means (by standard error) of Km and […] values are calculated from at least three independent experiments. […]” for “model.”

Sorghum HPPD = test: HPPD activity assay, Sorghum HPPD; assay type: biochemical
Procedure: as §1, §2, §8, §4, §9, §10
as §6, with “model. […] Weighted means (by standard error) of Km and […] values are calculated from at least three independent experiments. […]” for “model.”

[2] = molecular target: T2, Arabidopsis HPPD variant M335H, P336A (Arabidopsis thaliana, UniProt P93836, M335H/P336A); test: HPPD activity assay, Arabidopsis HPPD mutant M335H, P336A; assay type: biochemical
T2 construct: PCR-based site directed mutagenesis of pEXP5-NT/TOPO®-AtHPPD is done; His6 (N); made in house; host or cells: E. coli BL21 (DE3)
Procedure: as §1, §2, §3, §4, §5
Inhibitors are dissolved in DMSO (dimethylsulfoxide) to a concentration of 0.5 mM. […] IC50 values are calculated using non-linear regression. […]
Purified, mutant HPPD enzymes are obtained by the methods described above. […] Apparent michaelis constants (Km) and maximal reaction velocities (Vmax) are calculated by non-linear regression with the software GraphPad Prism 5 (GraphPad Software, La Jolla, USA) using a substrate inhibition model.
as §7, with “of the optimized HPPD enzyme,” for “of the HPPD enzyme,”, “herbicide tolerance trait may depend” for “herbicide tolerance trait, may depend”

T2 sequence (P93836 whole entry M335H/P336A): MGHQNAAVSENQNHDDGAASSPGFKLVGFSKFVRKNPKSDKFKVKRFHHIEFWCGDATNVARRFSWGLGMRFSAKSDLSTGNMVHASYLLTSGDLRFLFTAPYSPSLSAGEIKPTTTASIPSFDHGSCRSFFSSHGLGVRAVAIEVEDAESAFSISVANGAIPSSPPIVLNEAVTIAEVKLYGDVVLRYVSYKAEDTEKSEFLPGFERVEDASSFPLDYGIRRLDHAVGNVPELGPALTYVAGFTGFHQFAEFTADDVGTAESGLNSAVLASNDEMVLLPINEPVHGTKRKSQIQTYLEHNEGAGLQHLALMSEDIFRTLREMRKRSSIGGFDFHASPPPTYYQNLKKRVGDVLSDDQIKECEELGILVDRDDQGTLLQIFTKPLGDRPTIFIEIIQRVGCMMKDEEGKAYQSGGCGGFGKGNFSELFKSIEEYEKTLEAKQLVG

In the case of `CC1CC(c2c(Cl)ccc(C3=C(O)c4ncccc4CS3(=O)=O)c2Cl)=NO1` (stereo not drawn) [Inhibitor 4, 7-[2,4-dichloro-3-(5-methyl-4,5-dihydroisoxazol-3-yl)phenyl]-6,6-dioxo-5H-thiopyrano[4,3-b]pyridin-8-ol], the “Normalized tolerance index TI” value ([1]; Arabidopsis HPPD Wildtype, Table 15) is reported as 1, the “Normalized tolerance index TI” value ([1]; Arabidopsis HPPD, Table 12) is reported as 1 and the “Normalized tolerance index TI” value (Alopecurus HPPD) is reported as 3.5. For the same compound, the “Normalized tolerance index TI” value (Avena HPPD) was 5.3, the “Normalized tolerance index TI” value (Chlamydomonas HPPD1) was 1.3 and the “Normalized tolerance index TI” value (Lolium HPPD) was 4.5. For the same compound, the “Normalized tolerance index TI” value (Poa HPPD) was 1.2, the “Normalized tolerance index TI” value (Sorghum HPPD) was 3.7 and the “Normalized tolerance index TI” value [2] was 7.4.
